Where no end group is shown, it is not given here. PEG = not defined here; βAla = NCCC(=O)O
Key:
HepG2 cells [1] = assay: AAV-2-GFP transduction with CPPs, flow cytometry; type: cell-based, human; details: 200 μM CPP; for cells expressing GFP: AAV-2 MOI of 500, HepG2, 4% in the absence of CPP
Experimental: (§1) In this example different AAV serotypes including AAV 1, AAV2, AAV5, AAV6, AAV8 and AAV9 were tested against human hepatocytes (HepG2) and human neuronal cells (HCN2) in the presence or in the absence of CPPs including ADGN-103a, ADGN-103b, ADGN-100, ADGN-109, ADGN-106, PEP-1, PEP-2, CADY, and TAT-HA2.
(§2) AAV-1, AAV-2, AAV-5, and AAV-6 viruses encoding green fluorescent protein were obtained from Cell Biolabs Inc and AAV-8 from Vector Biolabs. Stock solutions of virus were obtained at 1χ10^13 GC/ml in PBS/0.01% and diluted 50-fold to 2×10^11 GC/ml before use.
(§3) AAV-1, AAV-2, AAV-5, and AAV6 encoding green fluorescent protein were used at low MOI of 500 (1-2×10^7 PFU) and AAV-8 at MOI of 1000 (2-4×10^7 PFU). HepG2 and HCN2 cells (1 10^6 cells per well) were cultured in a 24 well plate culture dish format. For MOI of 1000, 5 μl of AAV virus diluted solutions were preincubated in PBS with increasing concentration of CPPs ranging from 0.1 to 200 μM for 30 min. For MOI of 500, 2.5 μl of AAV virus diluted solutions were preincubated in PBS with increasing concentration of CPPs ranging from 0.1 to 200 μM for 30 min. 200 μl of AAV or CPP/AAV complex solutions were added to cultured cells (1×10^6 cells per well). Cells are treated with either free AAV or CPP/AAV complexes for 4 h. and then the medium is replaced with fresh medium.
(§4) Viral mediated transgene expression was monitored by flow cytomety 2 days post-infection in HepG2 and Human neuronal HCN2. The percentage of GFP expressing cells were detected by flow cytometry and the increase of AAV infectivity was calculated based on the number of GFP-positive cells. Results are reported in FIGS. 5A-5D, 6A-6D, 7A-7D, 8A-8D, and 9A-9D.

HCN2 cells [2] = assay: AAV-2-GFP transduction with CPPs, flow cytometry; type: cell-based, human; details: 200 μM CPP; for cells expressing GFP: AAV-2 MOI of 500, HCN2, 4% in the absence of CPP; for increase of AAV-2 efficiency: MOI of 500, HCN2
Experimental: as §1, §2, §3, §4

HepG2 and HCN2 cells [3] = assay: AAV-6-GFP transduction with CPPs, statements for both cell lines; type: cell-based, human; details: for impact on AAV-6 infectivity: 1 μM concentration, both cell lines; for share of the final improvement obtained at 200 μM: 10 μM concentration, AAV-6, both cell lines
Experimental: as §1, §2, §3, §4

HepG2 and HCN2 cells [4] = assay: AAV-8-GFP transduction with CPPs, statements for both cell lines; type: cell-based, human; details: for impact on AAV-8 infectivity: 1 μM concentration, both cell lines; for share of the final improvement obtained at 200 μM: 10 μM concentration, AAV-8, both cell lines
Experimental: as §1, §2, §3, §4

HepG2 and HCN2 cells [5] = assay: AAV-1-GFP transduction with CPPs, statements for both cell lines; type: cell-based, human; details: for impact on AAV-1 infectivity: 1 μM concentration, both cell lines; for share of the final improvement obtained with 200 μM: 10 μM concentration of CPP, AAV-1, both cell lines
Experimental: as §1, §2, §3, §4

HepG2 cells [6] = assay: AAV-1-GFP transduction with CPPs, flow cytometry; type: cell-based, human; details: 200 μM CPP; for cells expressing GFP: AAV-1 MOI of 500, HepG2, 5% in the absence of CPP
Experimental: as §1, §2, §3, §4

HCN2 cells [7] = assay: AAV-1-GFP transduction with CPPs, flow cytometry; type: cell-based, human; details: 200 μM CPP; for cells expressing GFP: AAV-1 MOI of 500, HCN2, 5% in the absence of CPP; for increase of AAV-1 efficiency: MOI of 500, HCN2
Experimental: as §1, §2, §3, §4

HepG2 and HCN2 cells [8] = assay: AAV-2-GFP transduction with CPPs, statements for both cell lines; type: cell-based, human; details: for impact on AAV-2 infectivity: 1 μM concentration, both cell lines; for share of the final improvement obtained with 200 μM: 10 μM concentration of CPP, AAV-2, both cell lines
Experimental: as §1, §2, §3, §4

HepG2 cells [9] = assay: AAV-6-GFP transduction with CPPs, flow cytometry; type: cell-based, human; details: 200 μM CPP; for cells expressing GFP: AAV-6 MOI of 500, HepG2, 5% in the absence of CPP; for increase of AAV-6 efficiency: MOI of 500, HepG2
Experimental: as §1, §2, §3, §4

HCN2 cells [10] = assay: AAV-6-GFP transduction with CPPs, flow cytometry; type: cell-based, human; details: for cells expressing GFP: 200 μM of CPP, AAV-6 MOI of 500, HCN2, 4% in the absence of CPP; for increase of AAV-6 efficiency: 200 μM CPP, MOI of 500, HCN2
Experimental: as §1, §2, §3, §4

HepG2 and HCN2 cells [11] = assay: AAV-5-GFP transduction with CPPs, statements for both cell lines; type: cell-based, human; details: for impact on AAV-5 infectivity: 1 μM concentration, both cell lines; for share of the final improvement obtained at 200 μM: 10 μM concentration, AAV-5, both cell lines
Experimental: as §1, §2, §3, §4

HepG2 cells [12] = assay: AAV-8-GFP transduction with CPPs, flow cytometry; type: cell-based, human; details: 200 μM CPP, AAV-8 MOI of 1000, HepG2; 5% in the absence of CPP
Experimental: as §1, §2, §3, §4

HCN2 cells [13] = assay: AAV-8-GFP transduction with CPPs, flow cytometry; type: cell-based, human; details: 200 μM CPP, AAV-8 MOI of 1000, HCN2; 5% in the absence of CPP
Experimental: as §1, §2, §3, §4

HepG2 cells [14] = assay: AAV-5-GFP transduction with CPPs, flow cytometry; type: cell-based, human; details: 200 μM CPP; for cells expressing GFP: AAV-5 MOI of 500, HepG2, 5% in the absence of CPP
Experimental: as §1, §2, §3, §4

HCN2 cells [15] = assay: AAV-5-GFP transduction with CPPs, flow cytometry; type: cell-based, human; details: 200 μM CPP; for cells expressing GFP: AAV-5 MOI of 500, HCN2, 5% in the absence of CPP; for increase of AAV-5 efficiency: MOI of 500, HCN2
Experimental: as §1, §2, §3, §4

293 T cells = assay: AAV-2/PEP-1 peptide particle stability (serum, heparin), GFP expressing cells by flow cytometry; type: cell-based; details: for effect of the modification on AAV/PEP-1 complex stability in serum: high concentration of serum; for reduction of the level of GFP expressing cells (efficacy): particles incubated 1 hour in 50% serum, 50 μM peptide, AAV-2 MOI of 300; for increase of efficacy: standard conditions (no serum, no heparin), vs unmodified PEP-1
Experimental: Stock solutions of peptides were prepared at 2 mg/mL in distilled water or 5% DMSO and sonicated for 10 min in a water bath sonicator then diluted just before use. AAV-2 encoding green fluorescent protein at MOI of 300 was pre-incubated in low salt medium with PEP-1 peptides containing either a specific targeting motif, a PEG or Dopamine moiety at a concentration of 50 μM for 30 min. The AAV-2/peptide particle stability was evaluated in different conditions. Particles were incubated for 1 hour in DMEM medium containing 10, 20 to 50% serum (FSC) or in the presence of heparin (5 and 10 μg). Then AAV alone or PEP-1/AAV complexes were added to cultured 293 T cells in a 24 well plate format. Cells were treated with either free AAV-2 or Peptide/AAV-2 complexes for 4 h, and then the medium was replaced with fresh medium. Viral mediated transgene expression was monitored 2 days post-infection. GFP expressing cells were detected by flow cytometry.

Substance	cells expressing GFP (HepG2 cells [1]) [%]	cells expressing GFP (HCN2 cells [2]) [%]	impact on AAV-6 infectivity (HepG2 and HCN2 cells [3])	share of the final improvement obtained at 200 μM (HepG2 and HCN2 cells [3])	impact on AAV-8 infectivity (HepG2 and HCN2 cells [4])	share of the final improvement obtained at 200 μM (HepG2 and HCN2 cells [4])	impact on AAV-1 infectivity (HepG2 and HCN2 cells [5])	share of the final improvement obtained with 200 μM (HepG2 and HCN2 cells [5])	cells expressing GFP (HepG2 cells [6]) [%]	cells expressing GFP (HCN2 cells [7]) [%]	impact on AAV-2 infectivity (HepG2 and HCN2 cells [8])	share of the final improvement obtained with 200 μM (HepG2 and HCN2 cells [8])	cells expressing GFP (HepG2 cells [9]) [%]	cells expressing GFP (HCN2 cells [10]) [%]	impact on AAV-5 infectivity (HepG2 and HCN2 cells [11])	cells expressing GFP (HepG2 cells [12]) [%]	cells expressing GFP (HCN2 cells [13]) [%]	cells expressing GFP (HepG2 cells [14]) [%]	cells expressing GFP (HCN2 cells [15]) [%]	effect of the modification on AAV/PEP-1 complex stability in serum (293 T cells)	other results
βAKWFERWFREWPRKRR (not fully specified (residue 1, N-terminus); printed as βAKWFERWFREWPRKRR) [ADGN-103a]	98	71	significant impact	about 70%	significant impact	about 60%	significant impact	about 60%	76	75	significant impact	about 70%	94	65	significant impact	52	49	60	45		share of the final improvement obtained at 200 μM (HepG2 and HCN2 cells [11]): about 50%
DOPA-GGGG-KETWWETWWTEWSQPKKKRKV (GGGGKETWWETWWTEWSQPKKKRKV; not fully specified (N-terminus)) [PEP-1-DOPA, Dopamine added to the N-terminus of PEP-1 using a Gly4 linker]																				stabilized	reduction of the level of GFP expressing cells (efficacy) (293 T cells): 30%; increase of efficacy (293 T cells): 40%
βALWRALWRLWRSLWRLLWKA (not fully specified (residue 1, N-terminus); printed as βALWRALWRLWRSLWRLLWKA) [ADGN-106]																					increase of AAV-2 efficiency (HCN2 cells [2]): 7 fold; increase of AAV-1 efficiency (HCN2 cells [7]): 7 fold; increase of AAV-6 efficiency (HepG2 cells [9]): about 10 fold; increase of AAV-6 efficiency (HCN2 cells [10]): 7 fold; increase of AAV-5 efficiency (HCN2 cells [15]): 4 fold
βAKWWERWWREWPRKRR (not fully specified (residue 1, N-terminus); printed as βAKWWERWWREWPRKRR) [ADGN-103b]	96	81	significant impact	about 70%	significant impact	about 60%	significant impact	about 60%	81	78	significant impact	about 70%	98	67	significant impact	60	58	64	48		increase of AAV-6 efficiency (HepG2 cells [9]): 30 fold; increase of AAV-6 efficiency (HCN2 cells [10]): 22 fold; share of the final improvement obtained at 200 μM (HepG2 and HCN2 cells [11]): about 50%
βALRWWLRWASRWFSRWAWWR (not fully specified (residue 1, N-terminus); printed as βALRWWLRWASRWFSRWAWWR) [ADGN-109]	90	58	significant impact	about 70%	significant impact	about 60%	significant impact	about 60%	61	62	significant impact	about 70%	82	62	significant impact	45	44	51	37		increase of AAV-1 efficiency (HepG2 cells [6]; MOI of 500, HepG2): 16 fold; increase of AAV-1 efficiency (HCN2 cells [7]): 15 fold; share of the final improvement obtained at 200 μM (HepG2 and HCN2 cells [11]): about 50%
PEG-βAKETWWETWWTEWSQPKKKRKV ({PEG-βAla}-KETWWETWWTEWSQPKKKRKV; reading uncertain) [PEP-1-PEG, PEP-1 mono-PEGylated with 5 kDa PEG at the N-terminal beta Alanine]																				stabilized	reduction of the level of GFP expressing cells (efficacy) (293 T cells): 30%; increase of efficacy (293 T cells): 40%
GLWRALWRLLRSLWRLLWKV [CADY, reference compound]	23	20							27	22			29	18		15	12	11	10		increase of AAV-2 efficiency (HepG2 cells [1]; MOI of 500, HepG2): 5 fold; increase of AAV-2 efficiency (HCN2 cells [2]): 3 fold; increase of AAV-1 efficiency (HCN2 cells [7]): 3 fold; increase of AAV-6 efficiency (HCN2 cells [10]): 3 fold; increase of AAV-5 efficiency (HepG2 cells [14]; MOI of 500, HepG2): 3 fold; increase of AAV-5 efficiency (HCN2 cells [15]): 2 fold
KETWWETWWTEWSQPKKKRKVGGGG-GYVSK (Ac-KETWWETWWTEWSQPKKKRKVGGGGGYVSK-cysteamide) [PEP-1 T2]																				only a moderate effect	
GYVSK-GGGGSKETWWETWWTEWSQPKKKRKV (Ac-GYVSKGGGGSKETWWETWWTEWSQPKKKRKV-cysteamide) [PEP-1 T1]																				significantly protected	reduction of the level of GFP expressing cells (efficacy) (293 T cells): 27%
